In US4322439A, “ω-[2-(N-Lower alkyl-benzamido)-phenyl]-alkanoic acids, their use, and medicaments containing them” (BYK Gulden Lomberg Chemische Fabrik GmbH, priority 1978, dated 1982):
Like-named read-outs stand apart in the source and are kept apart here.

How the values were obtained:
[1] = tested on: fasting, metabolically healthy rats; assay: Blood glucose determination after single oral application (fasting, metabolically healthy rats); format: in vivo, Sprague-Dawley rats; conditions: for A: Change of the blood glucose concentration (maximal, with reference to control animals): single oral administration 0.6 to 1.0 mmole/kg, maximal change within 24 hours; for ED50: read-out: B: ED50 (dose which effects a lowering of the blood glucose concentration by at least 15% in 50% of the animals)
Protocol: In Table I there are reproduced investigations of the influence of representatives of the compounds according to the invention on the blood glucose concentration of fasting, metabolically healthy rats after single oral administration of substance of 0.6 to 1.0 mmole/kg body weight within 24 hours. Column A states in each case the maximal lowering in % with reference to the control group within 24 hours after application of the compounds.
1. Blood Glucose Determination After Single Oral Application
Young male Sprague-Dawley rats (body weight 160-200 g) are used. The animals are kept in makralon cages with up to 5 animals per cage [room-temperature 23° C., humidity of the atmosphere 55%, fixed day/night rhythm (12/12 h), rat standard diet Altromin^R ].
Food is withdrawn from the animals 20-22 hours before the taking of the 1st blood sample. Water uptake occurs ad libitum. Blood samples are taken at intervals of 0, 2, 6 and 24 hours through puncture from the postorbital plexus.
After deproteinisation with perchloric acid, the blood glucose determination is effected by means of the enzymatic HK/G-6-POH method according to R. Richterich [Klinische Chemie, Theorie und Praxis, 3rd Edition, 1971, S. Karger Verlag, Zuerich-Basle, page 275].
For comparison, in each case a control group treated with pure solvent is also investigated.

[2] = in vivo; conditions: mouse
Protocol: 3. Determination of the toxicity
The toxicity investigations were carried out on female NMRI mice (body weight 22-26 g). The animals (5 animals per dose) receive, 18 hours before the treatment, the food (Altromin®) reduced to 50 g/50 animals and water ad libitum. Various doses of the substances are administered per os or intraperitoneal (volume 20 ml/kg). The duration of observation is 7 days. The DL50, i.e. the dose at which 50% of the animals die, is determined graphically from the dose effect curve.

[3] = tested on: isolatedly perfused rat liver; assay: Inhibition of glucose formation (from lactate and pyruvate) on the isolatedly perfused rat liver; design: species or system Sprague-Dawley rats; conditions: for D: ID50 (inhibition of the glucose formation from lactate and pyruvate by 50%): isolatedly perfused rat liver, concentration in the perfusate
Protocol: The values in column D show the concentrations (ID50 mmol/l) of the substances in the perfusate, which bring about on the isolatedly perfused rat liver an inhibition of the glucose formation from lactat and pyruvat by 50%.
2. Inhibition of Glucose Formation on the Isolatedly Perfused Rat Liver
Young male Sprague-Dawley rats (160-200 g) are used. The animals are kept as described under 1.
Food is withdrawn from the animals 20-22 hours before the operation. Water uptake occurs ad libitum. Operation and perfusion of the liver are effected according to the technique of R. Scholz et al. [Eur. J. Biochem. 38 (1973) 64-72]. As perfusion liquids, Krebs-Henseleit biocarbonate buffer (pH 7.4) is used which is saturated with an oxygen/carbon dioxide mixture (95/5) and contains 1.6 mmoles/liter L-lactates and 0.2 mmole/liter pyruvate. The perfusion liquid is pumped into the liver via a cannula introduced into the portal vein. The perfusion liquid emerging is collected via a cannula introduced into the vena cava and then taken past an oxygen electrode. The liver is perfused for about 2 hours. The test compounds are infused from the 32nd to 80th minute of the perfusion, with increasing concentrations (0.01, 0.03, 0.10 mmol/l).
Samples of the emerged perfusion liquid are collected at one-minute intervals and analysed for glucose, lactate and pyruvate according to enzymatic standard methods. The oxygen content is continuously determined by means of a platinum electrode. The check constants (ID50) stated in Table I refer to the state which exists before and after addition of the compounds; the changes caused alone through lactate and pyruvate were set at 100%.

[4] = rat, single oral administration, with reference to control group
[5] = ip, i.p., read-out: C: LD50 (i.p.)

SMILES	A: Change of the blood glucose concentration (maximal, with reference to control animals) ([1]; rat) [%]	ED50 [1, 4] [mg/kg]	LD50 at 168 h ([2]; po, per os, read-out: C: LD50) [mg/kg]	LD50 at 168 h [2, 5] [mg/kg]	inhibition of the glucose formation from lactate and pyruvate in the liver (in words) [3]	D: ID50 (inhibition of the glucose formation from lactate and pyruvate by 50%) [3]	ED50 ([1]; Rattus norvegicus, po) [mg/kg]
CN(C(=O)c1ccccc1)c1ccccc1CCCC(=O)O [Serial No. 3, 4-[2-(N-methylbenzamido)-phenyl]-butyric acid]	-27	205					
CN(C(=O)c1ccc(Cl)c(Cl)c1)c1ccccc1CCCCC(=O)O [Serial No. 15, 5-[2-(N-methyl-3,4-dichlorobenzamido)-phenyl]-valeric acid]	-5	> 700					
CN(C(=O)c1ccccc1)c1ccccc1CCC(=O)O [Serial No. 6, 3-[2-(N-methylbenzamido)-phenyl]-propionic acid]	-26	221	970				
CN(C(=O)c1ccc(Cl)c(Cl)c1)c1ccccc1CCCC(=O)O [Serial No. 10, 4-[2-(N-methyl-3,4-dichlorobenzamido)-phenyl]-butyric acid]	-17	198		250			
COc1ccc(N(C)C(=O)c2ccc(Cl)c(Cl)c2)c(CCCC(=O)O)c1 [Serial No. 14, 4-[5-methoxy-2-(N-methyl-3,4-dichloro-benzamido)-phenyl]-butyric acid]	-21						
[H]/N=C(/N)N/C(=N/[H])NCCc1ccccc1 [Serial No. 2, phenformin]	-2				no inhibition	ineffective	
CN(C(=O)c1ccc(Cl)cc1)c1ccccc1CCCC(=O)O [Serial No. 9, 4-[2-(N-methyl-4-chlorobenzamido)-phenyl]-butyric acid]	-24	103	> 1000				
CN(C(=O)c1ccc(Cl)cc1)c1ccccc1CCC(=O)O [Serial No. 4, 3-[2-(N-methyl-4-chlorobenzamido)-phenyl]-propionic acid]	-16	426					
COc1cccc(N(C)C(=O)c2ccc(Cl)cc2)c1CCCC(=O)O [Serial No. 13, 4-[6-methoxy-2-(N-methyl-4-chlorobenzamido)-phenyl]-butyric acid]	-14	> 500					
CN(C(=O)c1ccc(Cl)c(Cl)c1)c1ccc(Cl)cc1CCC(=O)O [Serial No. 7, 3-[5-chloro-2-(N-methyl-3,4-dichlorobenzamido)-phenyl]-propionic acid]	-15		> 1000				
CCCCNC(=N)NC(=N)N [Serial No. 1, buformin, reference compound]	-20				no inhibition	ineffective	227
CN(C(=O)c1cccc(C(F)(F)F)c1)c1ccccc1CCCC(=O)O [Serial No. 12, 4-[2-(N-methyl-3-trifluoromethylbenzamido)-phenyl]-butyric acid]	-20	278		150			
CN(C(=O)c1ccc(Cl)c(Cl)c1)c1ccccc1CCC(=O)O [Serial No. 5, 3-[2-(N-methyl-3,4-dichlorobenzamido)-phenyl]-propionic acid]	-11	363	1100				
CN(C(=O)c1cccc(C(F)(F)F)c1)c1ccc(Cl)cc1CCC(=O)O [Serial No. 8, 3-[5-chloro-2-(N-methyl-3-trifluoromethylbenzamido)-phenyl]-propionic acid]	-26	185	> 1000				
CN(C(=O)c1ccc(Cl)cc1Cl)c1ccccc1CCCC(=O)O [Serial No. 11, 4-[2-(N-methyl-2,4-dichlorobenzamido)-phenyl]-butyric acid]	-17	245	> 1000				
